Results taken from ChEMBL document CHEMBL5131531, “Small Molecule Inhibitors of TET Dioxygenases: Bobcat339 Activity Is Mediated by Contaminating Copper(II)” (ACS Med Chem Lett, 2022).
The source made the active and inactive calls. The calls are words filed in the database; no cut-off is given here.

Key:
[1] = target: Methylcytosine dioxygenase TET1 (Homo sapiens) (UniProt Q8NFU7); test: Inhibition of recombinant human TET1 catalytic domain assessed as reduction of 5hmC formation at 25 uM incubated for 30 mins by HPLC-ESI-MS/MS method
Methylcytosine dioxygenase TET1 (Homo sapiens), sequence (Q8NFU7 whole entry, the tested form may be a part): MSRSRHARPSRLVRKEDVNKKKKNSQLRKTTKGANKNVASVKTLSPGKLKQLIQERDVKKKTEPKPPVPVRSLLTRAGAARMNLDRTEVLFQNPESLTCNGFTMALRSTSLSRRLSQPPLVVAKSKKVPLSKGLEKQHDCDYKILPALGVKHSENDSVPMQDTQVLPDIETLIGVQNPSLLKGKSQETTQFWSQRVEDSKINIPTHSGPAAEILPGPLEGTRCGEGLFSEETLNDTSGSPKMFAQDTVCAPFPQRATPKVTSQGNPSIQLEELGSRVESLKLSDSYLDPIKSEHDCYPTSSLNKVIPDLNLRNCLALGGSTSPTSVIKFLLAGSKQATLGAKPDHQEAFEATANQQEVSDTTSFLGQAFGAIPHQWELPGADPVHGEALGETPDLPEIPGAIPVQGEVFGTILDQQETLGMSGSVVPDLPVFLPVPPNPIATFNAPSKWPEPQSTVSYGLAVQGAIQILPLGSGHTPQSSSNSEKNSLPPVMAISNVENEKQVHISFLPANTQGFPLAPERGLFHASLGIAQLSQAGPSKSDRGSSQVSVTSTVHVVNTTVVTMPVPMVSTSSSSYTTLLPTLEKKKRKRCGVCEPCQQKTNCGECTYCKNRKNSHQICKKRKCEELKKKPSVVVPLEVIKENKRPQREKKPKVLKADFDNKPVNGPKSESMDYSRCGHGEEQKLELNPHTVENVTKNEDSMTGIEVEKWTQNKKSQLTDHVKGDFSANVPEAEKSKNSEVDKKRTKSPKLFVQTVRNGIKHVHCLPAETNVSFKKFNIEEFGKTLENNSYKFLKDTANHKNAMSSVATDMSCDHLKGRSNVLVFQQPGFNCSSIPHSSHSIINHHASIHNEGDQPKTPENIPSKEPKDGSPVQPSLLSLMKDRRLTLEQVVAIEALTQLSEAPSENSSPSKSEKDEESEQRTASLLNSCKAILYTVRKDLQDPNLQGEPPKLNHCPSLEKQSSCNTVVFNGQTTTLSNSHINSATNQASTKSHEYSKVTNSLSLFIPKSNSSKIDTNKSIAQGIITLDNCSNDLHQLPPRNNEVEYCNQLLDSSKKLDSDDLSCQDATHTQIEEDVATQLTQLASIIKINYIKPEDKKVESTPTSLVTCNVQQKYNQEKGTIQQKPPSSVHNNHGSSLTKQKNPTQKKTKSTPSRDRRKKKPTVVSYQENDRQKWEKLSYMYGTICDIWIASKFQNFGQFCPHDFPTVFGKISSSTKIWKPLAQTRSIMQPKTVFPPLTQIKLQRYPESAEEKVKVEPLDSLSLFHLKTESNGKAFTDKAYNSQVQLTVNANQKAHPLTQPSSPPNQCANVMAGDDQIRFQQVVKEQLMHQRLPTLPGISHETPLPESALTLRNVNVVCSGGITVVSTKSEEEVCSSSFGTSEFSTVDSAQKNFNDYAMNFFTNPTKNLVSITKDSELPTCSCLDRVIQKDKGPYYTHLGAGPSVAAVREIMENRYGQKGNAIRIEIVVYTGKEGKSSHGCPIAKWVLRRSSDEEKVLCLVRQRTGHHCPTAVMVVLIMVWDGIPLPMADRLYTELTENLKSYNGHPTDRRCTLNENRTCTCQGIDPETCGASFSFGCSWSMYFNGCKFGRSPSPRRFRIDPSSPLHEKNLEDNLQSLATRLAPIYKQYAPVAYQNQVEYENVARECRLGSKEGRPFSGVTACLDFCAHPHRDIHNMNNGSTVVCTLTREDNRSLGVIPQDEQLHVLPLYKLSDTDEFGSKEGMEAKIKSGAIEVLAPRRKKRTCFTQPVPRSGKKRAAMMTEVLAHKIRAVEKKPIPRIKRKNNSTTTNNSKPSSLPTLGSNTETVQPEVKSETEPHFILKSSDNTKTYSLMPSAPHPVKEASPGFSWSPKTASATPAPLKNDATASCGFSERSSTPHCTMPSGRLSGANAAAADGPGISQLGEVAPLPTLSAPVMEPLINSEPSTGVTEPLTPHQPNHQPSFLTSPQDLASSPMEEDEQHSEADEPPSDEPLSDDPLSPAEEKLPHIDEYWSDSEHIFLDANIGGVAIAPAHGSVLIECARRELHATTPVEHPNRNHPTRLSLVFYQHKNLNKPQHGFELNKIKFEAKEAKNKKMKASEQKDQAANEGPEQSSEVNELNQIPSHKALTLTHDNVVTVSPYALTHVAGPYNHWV

[2] = target: Methylcytosine dioxygenase TET1 (Homo sapiens) (UniProt Q8NFU7); test: Inhibition of recombinant human TET1 catalytic domain assessed as reduction of 5hmC formation at 125 uM using hemi-methylated synthetic oligomer 5'-AATTAGAA[5meC]GCTCCTT-3' as substrate incubated for 30 mins by LC-MS method
[3] = target: Methylcytosine dioxygenase TET2 (Homo sapiens) (UniProt Q6N021); test: Inhibition of recombinant human TET2 catalytic domain assessed as reduction of 5hmC formation at 125 uM using hemi-methylated synthetic oligomer 5'-AATTAGAA[5meC]GCTCCTT-3' as substrate incubated for 30 mins by LC-MS method
[4] = target: Methylcytosine dioxygenase TET1 (Homo sapiens) (UniProt Q8NFU7); test: Inhibition of recombinant human TET1 catalytic domain assessed as reduction of 5hmC formation at 125 uM using hemi-methylated synthetic oligomer 5'-AATTAGAA[5meC]GCTCCTT-3' as substrate incubated for 30 mins in presence of CuSO4 by LC-MS method
[5] = target: Methylcytosine dioxygenase TET1 (Homo sapiens) (UniProt Q8NFU7); test: Inhibition of recombinant human TET1 assessed as reduction of 5hmC formation at 0.01 to 125 uM incubated for 30 mins in presence of 1 uM CuSO4 by HPLC-ESI-MS/MS method; settings: dose 0.01-125 µM
[6] = target: Methylcytosine dioxygenase TET1 (Homo sapiens) (UniProt Q8NFU7); test: Inhibition of recombinant human TET1 assessed as reduction of 5hmC formation at 0.01 to 125 uM incubated for 30 mins in presence of 4 uM CuSO4 by HPLC-ESI-MS/MS method; settings: dose 0.01-125 µM

inhibition [1] | inhibition [2] | inhibition [3] | inhibition [4] | inhibition [5] | inhibition [6] | Molecule
Active | Active | Active |  |  |  | CUPRIC SULFATE
Active | Active |  | Active | Active | Active | Nc1nc(=O)n(-c2cccc(-c3ccccc3)c2)cc1Cl
